Measurements published in ChEMBL document CHEMBL1201862, “PubChem BioAssay data set” (2004).
Active and inactive are the calls of the source.

Columns and labels:
[1] = molecular target: G-protein coupled receptor 55 (Homo sapiens, UniProt Q9Y2T6); assay: selective activators of receptor GPR55 – imaging, U2OS cells, beta-arrestin-GFP redistribution, primary screen (AID 1961); format: functional
[2] = molecular target: T1, Histone-lysine N-methyltransferase NSD2 (Homo sapiens, UniProt O96028); format: biochemical
T1 sequence (O96028 whole entry): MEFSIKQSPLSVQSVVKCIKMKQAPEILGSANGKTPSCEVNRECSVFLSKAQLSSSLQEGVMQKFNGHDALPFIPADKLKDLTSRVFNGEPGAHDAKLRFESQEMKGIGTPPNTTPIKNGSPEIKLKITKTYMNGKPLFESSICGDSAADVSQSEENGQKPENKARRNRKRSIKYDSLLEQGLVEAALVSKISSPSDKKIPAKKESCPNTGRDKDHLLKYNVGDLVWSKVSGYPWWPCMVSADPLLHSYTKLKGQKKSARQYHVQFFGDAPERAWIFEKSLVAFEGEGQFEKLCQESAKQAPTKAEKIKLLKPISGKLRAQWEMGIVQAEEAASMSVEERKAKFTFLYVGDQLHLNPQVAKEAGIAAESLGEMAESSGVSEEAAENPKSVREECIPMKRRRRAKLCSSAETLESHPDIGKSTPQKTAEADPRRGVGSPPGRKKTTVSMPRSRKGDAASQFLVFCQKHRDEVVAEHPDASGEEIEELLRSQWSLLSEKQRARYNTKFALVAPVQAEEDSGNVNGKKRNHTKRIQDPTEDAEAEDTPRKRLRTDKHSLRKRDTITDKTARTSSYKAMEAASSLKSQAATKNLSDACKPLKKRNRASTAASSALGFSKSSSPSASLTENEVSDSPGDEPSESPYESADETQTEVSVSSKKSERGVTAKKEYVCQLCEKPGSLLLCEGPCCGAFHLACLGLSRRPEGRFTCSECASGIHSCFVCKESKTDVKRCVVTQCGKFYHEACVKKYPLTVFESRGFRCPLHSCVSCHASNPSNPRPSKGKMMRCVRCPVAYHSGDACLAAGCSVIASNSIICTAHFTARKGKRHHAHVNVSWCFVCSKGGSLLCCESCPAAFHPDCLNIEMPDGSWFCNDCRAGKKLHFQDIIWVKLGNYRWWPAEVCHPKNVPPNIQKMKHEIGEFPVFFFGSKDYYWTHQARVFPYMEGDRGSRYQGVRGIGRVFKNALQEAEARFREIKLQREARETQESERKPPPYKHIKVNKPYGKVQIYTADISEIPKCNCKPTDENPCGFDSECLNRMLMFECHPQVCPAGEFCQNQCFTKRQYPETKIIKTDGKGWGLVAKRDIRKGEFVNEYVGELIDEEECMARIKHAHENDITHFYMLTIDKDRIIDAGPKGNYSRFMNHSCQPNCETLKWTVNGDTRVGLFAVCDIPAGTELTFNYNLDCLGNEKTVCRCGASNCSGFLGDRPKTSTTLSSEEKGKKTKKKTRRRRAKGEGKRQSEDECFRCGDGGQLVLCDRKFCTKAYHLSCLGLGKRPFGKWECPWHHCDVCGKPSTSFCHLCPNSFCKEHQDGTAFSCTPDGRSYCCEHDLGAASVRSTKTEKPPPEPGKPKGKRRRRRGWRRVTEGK

Cytochrome P450 2C9 [3] = molecular target: T2, Cytochrome P450 2C9 (Homo sapiens, UniProt P11712)
Cytochrome P450 1A2 = molecular target: T3, Cytochrome P450 1A2 (Homo sapiens, UniProt P05177);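 also: PubChem cytochrome P450 panel assay, CYP1A2 panel member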
T3 sequence (P05177 whole entry): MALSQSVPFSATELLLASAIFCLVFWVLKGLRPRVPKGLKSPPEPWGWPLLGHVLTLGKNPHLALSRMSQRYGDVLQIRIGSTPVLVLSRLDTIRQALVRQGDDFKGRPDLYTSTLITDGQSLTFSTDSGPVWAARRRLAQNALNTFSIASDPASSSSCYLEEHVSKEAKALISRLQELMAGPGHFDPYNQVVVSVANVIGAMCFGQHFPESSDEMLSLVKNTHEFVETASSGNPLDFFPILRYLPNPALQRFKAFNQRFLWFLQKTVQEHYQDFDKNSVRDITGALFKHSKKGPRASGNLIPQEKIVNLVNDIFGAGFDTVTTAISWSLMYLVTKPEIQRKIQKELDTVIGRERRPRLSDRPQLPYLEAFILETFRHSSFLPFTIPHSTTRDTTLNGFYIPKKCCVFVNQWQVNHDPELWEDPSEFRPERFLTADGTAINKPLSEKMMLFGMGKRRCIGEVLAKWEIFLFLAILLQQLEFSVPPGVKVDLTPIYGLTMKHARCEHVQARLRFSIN

Cytochrome P450 2C19 = Cytochrome P450 2C19 (Homo sapiens, UniProt P33261); assay: Cytochrome panel assay with activity outcomes. Panel member name: p450-cyp2c19 Compounds with AC50 equal or less than 10 uM are considered active; format: functional
Cytochrome P450 3A4 = Cytochrome P450 3A4 (Homo sapiens, UniProt P08684);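 also: CYP3A4 tested as one member of a cytochrome P450 panel screen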
[4] = viability of PTEN-deleted HCT116 cells – cell-based, HCT116 PTEN knockout, dose response (AID 1047); format: functional;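 also: HCT116 colon tumor cells with PTEN knocked out; cells exposed to compound for 60 hours before readout; potency for loss of cell viability measured by luminescence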
Cytochrome P450 2C9 [5] = molecular target: T2, Cytochrome P450 2C9; remark: listed apart in the source
[6] = viability of HCT116 lacking mutant beta-catenin – cell-based, human colon tumor, dose response (AID 1045); format: functional;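 also: HCT116 colon tumor cells with beta catenin knocked out; cells exposed to compound for 60 hours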
Cytochrome P450 2D6 = Cytochrome P450 2D6 (Homo sapiens, UniProt P10635);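 also: CYP2D6 member of a cytochrome P450 panel assay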
[7] = HEK-293T cell viability reduction – luminescence, B-cell screen hits, cytotoxicity control for BCR NF-kB inhibitor project, dose response (AID 489021); format: functional, cell-based;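 also: HEK-293T cells carrying an NF-kB luciferase reporter; cells exposed to compound for about 14 hours before viability readout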
[8] = molecular target: T4, Calpain-2 catalytic subunit (Sus scrofa, UniProt P43367); assay: m-calpain protease blockers, concentration series – biochemical, fluorogenic peptide substrate, dose response (AID 1420); format: functional
T4 sequence (P43367 whole entry): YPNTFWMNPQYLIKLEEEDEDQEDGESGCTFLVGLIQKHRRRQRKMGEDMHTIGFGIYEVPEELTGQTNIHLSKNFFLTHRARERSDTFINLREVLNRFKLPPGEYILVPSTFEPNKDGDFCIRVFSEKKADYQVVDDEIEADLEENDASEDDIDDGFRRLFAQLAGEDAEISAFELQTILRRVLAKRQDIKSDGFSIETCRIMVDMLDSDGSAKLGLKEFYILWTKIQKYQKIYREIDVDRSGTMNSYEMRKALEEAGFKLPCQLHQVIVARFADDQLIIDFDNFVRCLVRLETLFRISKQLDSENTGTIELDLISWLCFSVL

INS1 = assay: INS-1E survival protection against cytokine death – cell-based, luminescence, retest, dose response (AID 449756); format: functional; conditions: Rattus norvegicus;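 also: cell death triggered by IL-1 beta plus TNF-alpha plus IFN-gamma mixture; protective hits raise ATP signal compared with cytokine alone wells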
[9] = intracellular Trypanosoma cruzi inhibitors in host cells – cell-based, plate reader, cherry-pick samples, set 3, dose response (AID 651818); format: functional;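 also: compounds incubated with infected cells for about four days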
[10] = molecular target: T5, Corticotropin-releasing factor receptor 2/Corticotropin-releasing factor-binding protein (Homo sapiens, UniProt P24387+Q13324); assay: activators of CRF receptor 2 with binding protein – uHTS hits, confirmation (AID 602473); format: functional; conditions: read-out: EC50_Mean
T5 sequence (Q13324 whole entry): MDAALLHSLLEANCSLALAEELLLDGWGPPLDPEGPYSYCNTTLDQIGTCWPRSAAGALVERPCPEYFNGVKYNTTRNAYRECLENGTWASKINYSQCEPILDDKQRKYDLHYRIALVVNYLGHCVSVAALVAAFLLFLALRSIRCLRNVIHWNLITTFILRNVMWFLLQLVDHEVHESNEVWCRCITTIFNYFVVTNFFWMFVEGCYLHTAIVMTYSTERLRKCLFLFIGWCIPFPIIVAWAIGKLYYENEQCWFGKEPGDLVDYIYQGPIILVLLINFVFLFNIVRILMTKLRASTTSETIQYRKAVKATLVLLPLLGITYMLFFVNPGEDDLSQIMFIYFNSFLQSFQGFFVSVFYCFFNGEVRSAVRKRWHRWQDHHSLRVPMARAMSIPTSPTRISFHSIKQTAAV
T5 sequence (P24387 whole entry): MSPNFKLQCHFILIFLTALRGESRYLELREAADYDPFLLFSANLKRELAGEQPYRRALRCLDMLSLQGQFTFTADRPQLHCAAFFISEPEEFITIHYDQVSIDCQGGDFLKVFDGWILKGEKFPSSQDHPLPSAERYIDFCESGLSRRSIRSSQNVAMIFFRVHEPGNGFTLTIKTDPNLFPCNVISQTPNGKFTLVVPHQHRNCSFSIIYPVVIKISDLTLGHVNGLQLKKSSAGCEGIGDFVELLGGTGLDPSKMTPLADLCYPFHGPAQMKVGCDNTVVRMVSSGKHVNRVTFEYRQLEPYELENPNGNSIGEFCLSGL

Chain of G-protein coupled receptor 55 (Q9Y2T6 whole entry): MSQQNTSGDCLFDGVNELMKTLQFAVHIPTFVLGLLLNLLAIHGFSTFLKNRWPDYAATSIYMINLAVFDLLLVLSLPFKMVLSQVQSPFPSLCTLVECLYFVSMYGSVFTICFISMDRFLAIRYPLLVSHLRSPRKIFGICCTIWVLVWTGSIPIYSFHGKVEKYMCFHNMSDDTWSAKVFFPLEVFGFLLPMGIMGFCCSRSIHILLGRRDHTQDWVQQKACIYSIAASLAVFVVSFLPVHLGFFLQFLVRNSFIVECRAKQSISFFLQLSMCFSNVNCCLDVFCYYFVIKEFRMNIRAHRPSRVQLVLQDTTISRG
Chain of Cytochrome P450 2C19 (P33261 whole entry): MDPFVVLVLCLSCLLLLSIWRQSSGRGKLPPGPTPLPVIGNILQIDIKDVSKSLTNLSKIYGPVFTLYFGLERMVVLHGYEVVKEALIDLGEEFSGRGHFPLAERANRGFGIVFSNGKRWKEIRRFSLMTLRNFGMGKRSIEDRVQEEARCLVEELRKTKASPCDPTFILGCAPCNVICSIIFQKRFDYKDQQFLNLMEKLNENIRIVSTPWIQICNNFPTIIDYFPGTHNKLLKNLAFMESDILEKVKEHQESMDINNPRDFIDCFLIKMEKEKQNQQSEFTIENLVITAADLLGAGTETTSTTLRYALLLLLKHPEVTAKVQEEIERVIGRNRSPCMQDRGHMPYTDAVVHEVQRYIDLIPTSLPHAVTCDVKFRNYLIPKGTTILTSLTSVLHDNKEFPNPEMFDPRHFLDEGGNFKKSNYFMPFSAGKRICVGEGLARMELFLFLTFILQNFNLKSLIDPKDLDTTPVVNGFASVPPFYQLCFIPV
T2 sequence (P11712 whole entry): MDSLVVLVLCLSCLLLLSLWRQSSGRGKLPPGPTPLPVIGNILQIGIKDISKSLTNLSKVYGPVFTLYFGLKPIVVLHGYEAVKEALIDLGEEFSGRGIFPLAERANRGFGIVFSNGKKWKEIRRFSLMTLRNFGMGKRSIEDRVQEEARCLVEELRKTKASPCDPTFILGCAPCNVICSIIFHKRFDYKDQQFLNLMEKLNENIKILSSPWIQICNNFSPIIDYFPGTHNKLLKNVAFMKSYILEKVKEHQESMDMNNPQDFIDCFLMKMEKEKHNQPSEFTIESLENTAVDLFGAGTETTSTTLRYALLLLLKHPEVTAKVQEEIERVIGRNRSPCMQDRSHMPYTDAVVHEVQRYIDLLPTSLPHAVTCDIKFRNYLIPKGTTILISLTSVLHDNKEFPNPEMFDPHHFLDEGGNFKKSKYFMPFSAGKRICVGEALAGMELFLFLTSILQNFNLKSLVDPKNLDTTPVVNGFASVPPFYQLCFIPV
Chain of Cytochrome P450 2D6 (P10635 whole entry): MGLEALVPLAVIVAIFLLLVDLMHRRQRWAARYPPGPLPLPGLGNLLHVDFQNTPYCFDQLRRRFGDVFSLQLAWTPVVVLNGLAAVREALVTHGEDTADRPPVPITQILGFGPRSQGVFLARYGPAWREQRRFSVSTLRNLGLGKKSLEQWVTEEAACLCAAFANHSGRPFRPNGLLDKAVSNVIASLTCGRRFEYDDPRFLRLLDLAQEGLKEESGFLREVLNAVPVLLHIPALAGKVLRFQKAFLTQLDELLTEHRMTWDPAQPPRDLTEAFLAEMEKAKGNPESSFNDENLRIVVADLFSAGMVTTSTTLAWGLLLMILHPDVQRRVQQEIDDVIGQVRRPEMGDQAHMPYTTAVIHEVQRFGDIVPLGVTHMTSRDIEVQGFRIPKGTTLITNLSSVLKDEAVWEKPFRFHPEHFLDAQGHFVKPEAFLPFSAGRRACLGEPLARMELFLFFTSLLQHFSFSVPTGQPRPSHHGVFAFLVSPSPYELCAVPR
Chain of Cytochrome P450 3A4 (P08684 whole entry): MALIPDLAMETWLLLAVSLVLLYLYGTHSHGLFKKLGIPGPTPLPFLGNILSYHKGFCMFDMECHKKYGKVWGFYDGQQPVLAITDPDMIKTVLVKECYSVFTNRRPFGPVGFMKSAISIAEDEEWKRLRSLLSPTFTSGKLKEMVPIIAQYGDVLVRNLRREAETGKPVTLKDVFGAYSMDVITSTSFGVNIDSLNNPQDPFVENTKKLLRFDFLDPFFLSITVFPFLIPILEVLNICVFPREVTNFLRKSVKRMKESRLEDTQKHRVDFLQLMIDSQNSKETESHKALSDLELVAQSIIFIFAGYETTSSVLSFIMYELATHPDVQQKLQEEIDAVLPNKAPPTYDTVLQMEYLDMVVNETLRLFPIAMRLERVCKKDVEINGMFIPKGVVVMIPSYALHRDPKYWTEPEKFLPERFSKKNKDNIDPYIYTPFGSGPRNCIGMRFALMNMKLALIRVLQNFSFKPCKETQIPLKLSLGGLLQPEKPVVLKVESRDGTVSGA

CCc1noc(C)c1C(=O)Nc1nc(-c2ccc(Cl)cc2Cl)cs1
EC50 [1]: 3.56 µM (active)

O=C(N[C@H]1CCC(=O)N([C@H](CSc2ccccc2)Cc2ccccc2)CC1)OCc1ccccc1
EC50 [1]: 1.74 µM (active)

CCN(CC)CCCNc1nc(-n2nc(C)cc2C)nc2sc3c(c12)CC(C)(C)OC3
AC50 [2]: > 20 µM (inactive)

CCOC(=O)c1c(C)c(C(=O)N2CCN(C(=O)c3ccco3)CC2)c(C)n1C
AC50 (Cytochrome P450 2C9 [3]): inconclusive
AC50 (Cytochrome P450 1A2): 39.8 µM (inconclusive)
AC50 (Cytochrome P450 2C19; read-out: AC50): 28.2 µM (inconclusive)

COc1ccccc1/C=C/C(=O)c1ccc(Cl)cc1
EC50 [1]: 25.5 µM (inactive)
AC50 (Cytochrome P450 3A4): 28.2 µM (inconclusive)
EC50 [4]: 23.5 µM (active)
AC50 (Cytochrome P450 2C9 [5]): 22.4 µM (inconclusive)
EC50 [6]: 21.8 µM (active)
AC50 (Cytochrome P450 2D6): 15.8 µM (inconclusive)

C[C@@]1(O)CCOC(=O)C1
AC50 (Cytochrome P450 2C9 [3]): inconclusive
AC50 (Cytochrome P450 2C19): inconclusive

O=C(/C=C/c1ccco1)Nc1scc(-c2ccccc2)c1C(=O)O
AC50 [2]: > 20 µM (inactive)

Cc1noc(C)c1CSc1nc2nncc-2c(O)n1-c1ccccc1
IC50 [7]: > 80 µM (inactive)

CC(=O)c1c(C)[nH]c(C(=O)OCc2cccc(Cl)c2)c1C
IC50 [8]: 7.75 µM (not active)
AC50 (INS1): 20 µM (active)

COc1ccc(NS(=O)(=O)c2cc(NC(=O)c3cc(=O)c4ccccc4o3)ccc2OC)cc1
IC50 [7]: > 80 µM (inactive)

CN(C)c1ccc(-c2nc(N(C)Cc3ccco3)c3ccccc3n2)cc1
AC50 (Cytochrome P450 2C9 [3]): inconclusive
AC50 (Cytochrome P450 2C19; read-out: AC50): 20 µM (inconclusive)

COc1ccccc1CNC(=O)CCCn1c(=O)c2ccccc2n(CC(=O)NC2CCCC2)c1=O
AC50 (Cytochrome P450 2C9 [3]): inconclusive

COCCNc1ccnc(-c2ccccc2C(F)(F)F)n1
AC50 (Cytochrome P450 2C9 [3]): inconclusive
AC50 (Cytochrome P450 1A2): 20 µM (inconclusive)

CC(=C\c1ccccc1)/C=C1/SC(=O)N(CCCC(=O)Nc2ccc(C(=O)O)cc2)C1=O
IC50 [7]: > 80 µM (inactive)

CC(=O)Nc1ccc(Sc2ccccc2C(=O)O)cn1
AC50 [2]: 6.95 µM (active)

CCN(CC)CCCNc1nc(CN2CCOCC2)nc2sc3c(c12)CCC3
AC50 [2]: > 20 µM (inactive)

CCN(CC(=O)Nc1c(F)cccc1F)C(=O)c1cc([N+](=O)[O-])ccc1N1CCCCC1
IC50 [7]: > 80 µM (inactive)

O=S(=O)(NCc1cc(-c2ccccc2Cl)no1)c1ccccc1
AC50 (Cytochrome P450 2C9 [3]): inconclusive
AC50 (Cytochrome P450 2D6): 39.8 µM (inconclusive)

COc1ccc(NC(=O)Nc2cccc3c2O[C@H](CN(C)S(=O)(=O)c2ccc(F)cc2)[C@@H](C)CN([C@H](C)CO)C3=O)cc1
AC50 [9]: 20 µM (inactive)

CCOc1ccc(/C=N/OCC(=O)NC(c2ccccc2)c2ccccc2)cc1
EC50 [10]: > 53 µM (inactive)
IC50 [8]: 7.59 µM (not active)

C[C@@H]1CCCCO[C@H](CN(C)CC2CCCCC2)[C@@H](C)CN([C@H](C)CO)C(=O)c2cc(NC(=O)Nc3ccc4c(c3)OCO4)ccc2O1
AC50 [9]: 1.96 µM (active)

Cc1ccc(S(=O)(=O)N(C)C[C@H]2OCCCC[C@@H](C)Oc3ccc(NS(=O)(=O)c4ccc(Cl)cc4)cc3C(=O)N([C@H](C)CO)C[C@@H]2C)cc1
AC50 [9]: 3.91 µM (active)

C[C@@H]1CN([C@H](C)CO)C(=O)Cc2cc(NC(=O)Cc3ccccc3)ccc2O[C@H]1CN(C)Cc1ccc(C(F)(F)F)cc1
AC50 [9]: 5.77 µM (active)

C[C@@H]1CN([C@@H](C)CO)C(=O)c2cccc(NC(=O)Nc3ccc(C(F)(F)F)cc3)c2O[C@H]1CN(C)Cc1ccc2c(c1)OCO2
AC50 [9]: 1.34 µM (active)

C[C@@H]1CN([C@H](C)CO)C(=O)Cc2cc(NS(=O)(=O)c3ccc(Cl)cc3)ccc2O[C@H]1CN(C)Cc1ccc(Oc2ccccc2)cc1
AC50 [9]: 4.56 µM (active)

CN(C)c1cc[n+](Cc2c(Cl)cccc2Cl)cc1
IC50 [7]: > 80 µM (inactive)
AC50 (INS1): 3.85 µM (active)

Nc1ccccc1S(N)(=O)=O
AC50 (Cytochrome P450 2C9 [3]): inconclusive

COC(=O)Nc1nc2ccc(C(=O)c3ccccc3)cc2[nH]1 [MEBENDAZOLE]
AC50 (Cytochrome P450 2C9 [3]): inconclusive
